Experimental data as given in patent US9943525B2, “Composition for reducing cell senescence comprising Rho-kinase inhibitor and use thereof” (Samsung Electronics Co., Ltd., priority 2014, dated 2018).

Tests used:
[1] = system: senescent fibroblasts (after 37 cell passages); experiment: mitochondrial membrane potential (JC-1) by flow cytometry; assay type: cell-based, human; details: vs control, p<0.05, FIG. 11
Procedure: Mitochondrial membrane potentials were measured using a MitoProbe™ JC-1 Assay kit for Flow Cytometry (Life technologies, T3168) according to manufacturer's manuals. JC-1 is accumulated in mitochondria in a potential-dependent manner, and this accumulation is identified by fluorescence emission shift from green (about 529 nm) to red (about 590 nm). As a result, mitochondrial depolarization is identified by a decrease in a red/green fluorescence ratio. The mitochondrial membrane potentials were measured by excitation at 488 nm using a FACSCaliber (Beckton Dickinson) and using a flow cytometer by using 530/30 nm and 585/42 nm band pass filters. The results were analyzed using Cell Quest 3.2 software (Beckton Dickinson). FIG. 11 is a graph displaying action potentials of mitochondria. […] In FIG. 11, * indicates statistically significant (p<0.05). In FIG. 11, the vertical axis is mitochondrial membrane potential. “MMP” refers to mitochondria membrane potential.

[2] = system: senescent progeric fibroblasts (cell passage 17); experiment: as above; assay type: cell-based, human; details: vs control, p<0.05, FIG. 20
Procedure: Progeric fibroblasts (Hutchinson-Gilford Progeria Syndrome Skin Fibroblasts, Coriell Cell Repositories, AG03198 B) were cultured in Dulbecco's Modified Eagle's Media (DMEM) supplemented with 10% fetal bovine serpm (FBS) and 100 unit/ml of penicillin, and 100 μg/ml of streptomycin (two antibiotics are purchased from Gibro-BRL and Grand Island, N.Y.) in a 5% CO2 incubator at 37° C. Subculturing was initiated when the cells were approximately 85% confluent in plates. Early subcultures were performed at a split ratio of 1:4, and later subcultures were performed at a split ratio of 1:2. When cell doubling time was 14 days, the cells were regarded as senescent progeric fibroblasts (cell passages 16 to 17).
(§1) The senescent progeric fibroblasts (cell passage 17) were seeded on each well of a 6-well plate in a concentration of 2,000 cells/well and cultured in the presence of 5 μM of Y-27632, 5 μM of FASUDIL, and 0.5 μM of SR3677 for 4 weeks in a 5% CO2 incubator at 37° C. The culture media were changed at every 4 days with new culture media supplemented with 5 μM of Y-27632, 5 μM of FASUDIL, and 0.5 μM of SR3677. A negative control group was prepared in the same manner, except that 0.05 (v/v) % of DMSO was used.
Mitochondrial membrane potentials were measured using a MitoProbe™ JC-1 Assay kit for Flow Cytometry (Life technologies, T3168) according to manufacturer's manuals. JC-1 is accumulated in mitochondria in a potential-dependent manner, and this accumulation is identified by fluorescence emission shift from green (about 529 nm) to red (about 590 nm). As a result, mitochondrial depolarization is identified by a decrease in a red/green fluorescence ratio. The mitochondrial membrane potentials were measured by excitation at 488 nm using a FACSCaliber (Beckton Dickinson) and using a flow cytometer by using 530/30 nm and 585/42 nm band pass filters. The results were analyzed using Cell Quest 3.2 software (Beckton Dickinson). FIG. 20 is a graph displaying action potentials of mitochondria. […] In FIG. 20, * indicates statistically significant (p<0.05). […]

[3] = system: senescent myoblasts (passage 11); experiment: microscopic observation of cell number and shape; assay type: cell-based, Human; details: 4 weeks, FIG. 13; for numbers of cells: vs DMSO
Procedure: (§2) Myoblast cell lines (Human Skeletal Muscle Myoblasts, Lonza CC-2580 LOT:0000387550) were cultured in SkBM™-2 Basal Media (Lonza CC-3246) including an SkGM™-2 SingleQuots™ Kit (Lonza CC-3244) on plates coated with Collagen Type I (Greiner Bio One, 658950) in a 5% CO2 incubator at 37° C. Subculture was initiated when the cells were approximately 85% confluent in plates. Early subcultures were performed at a split ratio of 1:4, and later subcultures were performed at a split ratio of 1:2. When cell doubling time was 14 days, the cells were regarded as senescent myoblasts (cell passages 10 to 12).
as §1, with “Senescent cells” for “The senescent progeric fibroblasts (cell passage 17)”, “plate coated with Collagen Type I (Greiner Bio One, 657950)” for “plate”, “cells/well. Senescent myoblasts (passage 11) were” for “cells/well and”
FIG. 13 illustrates microscopic images of cells cultured in the presence of 5 μM of Y-27632, 5 μM of FASUDIL, and 0.5 μM of SR3677. In “a” of FIG. 13, a portion was selected and marked by a rectangle with a dashed line, and the selected portion was enlarged in a1 for closer examination of the cultured cells. In a1 of FIG. 13, a portion was selected, marked by a rectangle with a dashed line, enlarged in a2 for much closer examination of the cultured cells (Scale bar 20 μm).

[4] = system: senescent myoblasts (11 cell passages); experiment: mitochondrial ROS (MitoSOX) by flow cytometry; assay type: cell-based, Human; details: vs control, p<0.05, FIG. 15
Procedure: as §2
as §1, with “Senescent cells” for “The senescent progeric fibroblasts (cell passage 17)”, “plate coated with Collagen Type I (Greiner Bio One, 657950)” for “plate”, “cells/well. Senescent myoblasts (passage 11) were” for “cells/well and”
ROS were measured using a 0.2 μM MitoSOX (Invitrogen, M3608) according to manufacturer's manuals. Light having a wavelength of 520 nm was irradiated to the cells using a FACSCaliber (Beckton Dickinson), and light emission was measured at 580 nm. The results were analyzed using Cell Quest 3.2 software (Beckton Dickinson).

SMILES	action potentials of mitochondria (mitochondrial membrane potential) ([1]; 5 μM)	action potentials of mitochondria (mitochondrial membrane potential) ([2]; 5 μM)	cell shape ([3]; 5 μM)	numbers of cells ([3]; 5 μM)	ROS ([4]; 5 μM)	action potentials of mitochondria (mitochondrial membrane potential) ([1]; 0.5 μM)	action potentials of mitochondria (mitochondrial membrane potential) ([2]; 0.5 μM)	cell shape ([3]; 0.5 μM)	numbers of cells ([3]; 0.5 μM)	ROS ([4]; 0.5 μM)
O=S(=O)(c1cccc2cnccc12)N1CCCNCC1 [FASUDIL, 5-(1,4-diazepane-1-sulfonyl)isoquinoline]	significantly increased	significantly increased	spindle shape generally found in young cells	greater than that of the control group	significantly reduced	–	–	–	–	–
CN(C)CCOc1cc(-c2cn[nH]c2)ccc1NC(=O)C1COc2ccccc2O1 (stereo not drawn) [SR3677]	–	–	–	–	–	significantly increased	significantly increased	spindle shape generally found in young cells	greater than that of the control group	significantly reduced
C[C@@H](N)[C@H]1CC[C@H](C(=O)Nc2ccncc2)CC1 [Y-27632, (1R,4R)-4-((R)-1-aminoethyl)-N-(pyridin-4-yl)cyclohexanecarboxamide]	significantly increased	significantly increased	spindle shape generally found in young cells	greater than that of the control group	significantly reduced	–	–	–	–	–
